# Target: T1, DLK (Homo sapiens, UniProt Q12852)
# T1 construct: N-terminally GST-tagged DLK (catalytic domain amino acid 1-520) (Carna Bioscience); GST (N); purchased Carna Bioscience
# T1 sequence (Q12852 1-520): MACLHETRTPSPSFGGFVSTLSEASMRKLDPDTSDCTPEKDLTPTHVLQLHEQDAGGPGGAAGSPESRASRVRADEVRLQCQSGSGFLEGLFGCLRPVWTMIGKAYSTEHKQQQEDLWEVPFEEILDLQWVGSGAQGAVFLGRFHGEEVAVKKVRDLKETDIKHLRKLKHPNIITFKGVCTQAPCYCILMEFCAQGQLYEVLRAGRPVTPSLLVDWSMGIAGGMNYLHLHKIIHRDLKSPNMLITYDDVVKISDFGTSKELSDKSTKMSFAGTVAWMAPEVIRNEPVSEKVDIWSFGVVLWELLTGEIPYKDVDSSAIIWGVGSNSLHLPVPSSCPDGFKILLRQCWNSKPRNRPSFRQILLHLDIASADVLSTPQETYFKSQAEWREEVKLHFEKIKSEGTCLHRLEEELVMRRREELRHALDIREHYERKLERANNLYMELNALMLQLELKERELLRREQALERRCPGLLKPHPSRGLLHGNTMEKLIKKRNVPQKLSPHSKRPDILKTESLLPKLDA
# Test: DLK TR-FRET assay
# Type: biochemical
# Conditions: 5 nM GST-tagged DLK (catalytic domain amino acid 1-520), 40 nM HIS-tagged MKK4 K131M substrate, 30 μM ATP, 60 minutes
# Procedure: DLK TR-FRET assay: DLK kinase reactions (20 μL) containing 5 nM N-terminally GST-tagged DLK (catalytic domain amino acid 1-520) (Carna Bioscience), 40 nM N-terminally HIS-tagged MKK4 K131M substrate, and 30 μM ATP in kinase reaction buffer (50 mM HEPES, pH 7.5, 0.01% Triton X-100, 0.01% Bovine γ-Globulins, 2 mM DTT, 10 mM MgCl2 and 1 mM EGTA), and testing compound 1:3 serial diluted starting at 20 uM were incubated at ambient temperature for 60 minutes in 384 well OptiPlate (Perkin Elmer). To quench kinase reactions and detect phosphorylated MKK4, 15 μL of TR-FRET antibody mixture containing 2 nM anti-phosphorylated MKK4 labeled with Europium cryptate (Cisbio) and 23 nM anti-HIS labeled with D2 (Cisbio) in detection buffer (25 mM Tris pH 7.5, 100 mM NaCl, 100 mM EDTA, 0.01% Tween-20, and 200 mM KF) was added to the reaction mixture. The detection mixture was incubated for 3 hours at ambient temperature and the TR-FRET was detected with an EnVision multilabel plate reader (Perkin-Elmer) using the LANCE/DELFIA Dual Enh label from Perkin-Elmer (excitation filter: UV2 (TRF) 320 and emission filters: APC 665 and Europium 615).
row,Structure (SMILES),Ki [nM]
1,"FC(F)c1ccnc(Nc2cc(C3CN(CC(F)(F)F)C3)cc(Cl)n2)c1 [Example 20, {6-Chloro-4-[1-(2,2,2-trifluoro-ethyl)-azetidin-3-yl]-pyridin-2-yl}-(4-difluoromethyl-pyridin-2-yl)-amine]",110
2,"COc1cc(C2CCN(C(C)=O)CC2)cc(Nc2cc(C#N)ccn2)n1 [Example 21, 2-(1′-Acetyl-6-methoxy-1′,2′,3′,4′,5′,6′-hexahydro-[4,4′]bipyridinyl-2-ylamino)-isonicotinonitrile]",12
3,"N#CC1(c2cc(Nc3cc(C(F)(F)F)ccn3)nc(N3CC(F)C3)c2)CCNCC1 [Example 23, 6′-(3-Fluoro-azetidin-1-yl)-2′-(4-trifluoromethyl-pyridin-2-ylamino)-2,3,5,6-tetrahydro-1H-[4,4′]bipyridinyl-4-carbonitrile]",0.32
4,"N#Cc1ccnc(Nc2cc(C3CN(C4COC4)C3)cc(Cl)n2)c1 [Example 24, 2-[6-Chloro-4-(1-oxetan-3-yl-azetidin-3-yl)-pyridin-2-ylamino]-isonicotinonitrile]",140
5,"FC(F)c1ccnc(Nc2cc(C3CCN(C4COC4)CC3)cc(C3CC3)n2)c1 [Example 25, (6-Cyclopropyl-1′-oxetan-3-yl-1′,2′,3′,4′,5′,6′-hexahydro-[4,4′]bipyridinyl-2-yl)-(4-difluoromethyl-pyridin-2-yl)-amine]",0.84
6,"CCc1cc(C2CCN(C3COC3)CC2)cc(Nc2cc(C(F)F)ccn2)n1 [Example 26, (4-Difluoromethyl-pyridin-2-yl)-(6-ethyl-1′-oxetan-3-yl-1′,2′,3′,4′,5′,6′-hexahydro-[4,4′]bipyridinyl-2-yl)-amine]",21
7,"CCc1cc(C2CCN(C3COC3)CC2)cc(Nc2cc(C#N)ccn2)n1 [Example 29, 2-(6-Ethyl-1′-oxetan-3-yl-1′,2′,3′,4′,5′,6′-hexahydro-[4,4′]bipyridinyl-2-ylamino)-isonicotinonitrile]",18
8,"C[C@@H]1CCCN1c1cc(C2(C#N)CCN(C3COC3)CC2)cc(Nc2cc(C#N)ccn2)n1 [Example 30, 2′-(4-Cyano-pyridin-2-ylamino)-6′-((R)-2-methyl-pyrrolidin-1-yl)-1-oxetan-3-yl-2,3,5,6-tetrahydro-1H-[4,4′]bipyridinyl-4-carbonitrile]",0.17
9,"N#Cc1ccnc(Nc2cc(C3CN(CC(F)(F)F)C3)cc(Cl)n2)c1 [Example 32, 2-{6-Chloro-4-[1-(2,2,2-trifluoro-ethyl)-azetidin-3-yl]-pyridin-2-ylamino}-isonicotinonitrile]",220
10,"N#Cc1ccnc(Nc2cc(C3(C#N)CCNCC3)cc(N3CC(F)C3)n2)c1 [Example 34, 2′-(4-Cyano-pyridin-2-ylamino)-6′-(3-fluoro-azetidin-1-yl)-2,3,5,6-tetrahydro-1H-[4,4′]bipyridinyl-4-carbonitrile]",1.9
11,"N#Cc1ccnc(Nc2cc(C3(C#N)CCN(C4COC4)CC3)cc(N3CC4CC4C3)n2)c1 (stereo not shown) [Example 35, 6′-(3-Aza-bicyclo[3.1.0]hex-3-yl)-2′-(4-cyano-pyridin-2-ylamino)-1-oxetan-3-yl-2,3,5,6-tetrahydro-1H-[4,4′]bipyridinyl-4-carbonitrile]",0.8
12,"CN1CCC(C#N)(c2cc(Nc3cc(C#N)ccn3)nc(N3CC4CC4C3)c2)CC1 (stereo not shown) [Example 36, 6′-(3-Aza-bicyclo[3.1.0]hex-3-yl)-2′-(4-cyano-pyridin-2-ylamino)-1-methyl-2,3,5,6-tetrahydro-1H-[4,4′]bipyridinyl-4-carbonitrile]",0.17
13,"N#Cc1ccnc(Nc2cc(C3(C#N)CCNCC3)cc(N3CC(F)(F)C3)n2)c1 [Example 37, 2′-(4-Cyano-pyridin-2-ylamino)-6′-(3,3-difluoro-azetidin-1-yl)-2,3,5,6-tetrahydro-1H-[4,4′]bipyridinyl-4-carbonitrile]",2.5
14,"C[C@@H]1CCCN1c1cc(C2(C#N)CCNCC2)cc(Nc2cc(C#N)ccn2)n1 [Example 39, 2′-(4-Cyano-pyridin-2-ylamino)-6′-((R)-2-methyl-pyrrolidin-1-yl)-2,3,5,6-tetrahydro-1H-[4,4′]bipyridinyl-4-carbonitrile]",0.17
15,"N#Cc1ccnc(Nc2cc(C3(C#N)CCNCC3)cc(N3CC4CC4C3)n2)c1 (stereo not shown) [Example 40, 6′-(3-Aza-bicyclo[3.1.0]hex-3-yl)-2′-(4-cyano-pyridin-2-ylamino)-2,3,5,6-tetrahydro-1H-[4,4′]bipyridinyl-4-carbonitrile]",0.17
16,"O=C1CCCN1c1cc(C2CCN(C3COC3)CC2)cc(Nc2cc(C(F)F)ccn2)n1 [Example 42, 1-[6-(4-Difluoromethyl-pyridin-2-ylamino)-1′-oxetan-3-yl-1′,2′,3′,4′,5′,6′-hexahydro-[4,4′]bipyridinyl-2-yl]-pyrrolidin-2-one]",6.4
17,"CCCCOc1cc(C2CCN(C3COC3)CC2)cc(Nc2cc(C(F)F)ccn2)n1 [Example 43, (6-Butoxy-1′-oxetan-3-yl-1′,2′,3′,4′,5′,6′-hexahydro-[4,4′]bipyridinyl-2-yl)-(4-difluoro-methyl-pyridin-2-yl)-amine]",3.8

# The remaining compounds from weak to strong by Ki, led by results:
row,Ki [nM],Structure (SMILES)
1,100,"Cc1cc(C2CCN(C3COC3)CC2)cc(Nc2cc(C(F)F)ccn2)n1 [Example 27, (4-Difluoromethyl-pyridin-2-yl)-(6-methyl-1′-oxetan-3-yl-1′,2′,3′,4′,5′,6′-hexahydro-[4,4′]bipyridinyl-2-yl)-amine]"
2,56,"CC(C)(C)OC(=O)N1CC(c2cc(Cl)nc(Nc3cc(C#N)ccn3)c2)C1 [Example 41, 3-[2-Chloro-6-(4-cyano-pyridin-2-ylamino)-pyridin-4-yl]-azetidine-1-carboxylic acid tert-butyl ester]"
3,5.1,"COC1CN(c2cc(C3(C#N)CCNCC3)cc(Nc3cc(C(F)(F)F)ccn3)n2)C1 [Example 19, 6′-(3-Methoxy-azetidin-1-yl)-2′-(4-trifluoromethyl-pyridin-2-ylamino)-2,3,5,6-tetrahydro-1H-[4,4′]bipyridinyl-4-carbonitrile]"
4,2.2,"CC(=O)N1CCC(c2cc(Nc3cc(C#N)ccn3)nc(OC(C)C)c2)CC1 [Example 22, 2-(1′-Acetyl-6-isopropoxy-1′,2′,3′,4′,5′,6′-hexahydro-[4,4′]bipyridinyl-2-ylamino)-isonicotinonitrile]"
5,2.2,"N#Cc1ccnc(Nc2cc(C3(C#N)CCNCC3)cc(N3CCC3)n2)c1 [Example 38, 6′-Azetidin-1-yl-2′-(4-cyano-pyridin-2-ylamino)-2,3,5,6-tetrahydro-1H-[4,4′]bipyridinyl-4-carbonitrile]"
6,1.4,"N#Cc1ccnc(Nc2cc(C3CCN(C4COC4)CC3)cc(C3CC3)n2)c1 [Example 28, 2-(6-Cyclopropyl-1′-oxetan-3-yl-1′,2′,3′,4′,5′,6′-hexahydro-[4,4′]bipyridinyl-2-ylamino)-isonicotinonitrile]"
7,0.17,"N#Cc1ccnc(Nc2cc(C3(C#N)CCNCC3)cc(N3CCC(F)(F)C3)n2)c1 [Example 31, 2′-(4-Cyano-pyridin-2-ylamino)-6′-(3,3-difluoro-pyrrolidin-1-yl)-2,3,5,6-tetrahydro-1H-[4,4′]bipyridinyl-4-carbonitrile]"
8,0.17,"C[C@@H]1CCCN1c1cc(C2(C#N)CCN(C)CC2)cc(Nc2cc(C#N)ccn2)n1 [Example 33, 2′-(4-Cyano-pyridin-2-ylamino)-1-methyl-6′-((R)-2-methyl-pyrrolidin-1-yl)-2,3,5,6-tetrahydro-1H-[4,4′]bipyridinyl-4-carbonitrile]"

# Reference: patent publication US9399636B2, “Substituted dipyridylamines and uses thereof” (Genentech, Inc., priority 2012, dated 2016)
